Experimental data reported in ChEMBL document CHEMBL4400521, “Plasma kallikrein cleaves and inactivates apelin-17: Palmitoyl- and PEG-extended apelin-17 analogs as metabolically stable blood pressure-lowering agents” (Eur J Med Chem, 2019).
Non-standard residues stand in square brackets, D forms with d. Residues, ends and D or L forms follow the SMILES beside them. *: point of attachment. Phe(4-Br) = N[C@@H](Cc1ccc(Br)cc1)C(=O)O; Fmoc = O=C(OCC1c2ccccc2-c2ccccc21)*; PEG6 = NCCOCCOCCOCCOCCOCCOCCC(=O)O; Palmitoyl = CCCCCCCCCCCCCCCC(=O)*; NMeL = CN[C@@H](CC(C)C)C(=O)O; Nle = CCCC[C@H](N)C(=O)O; Aib = CC(C)(N)C(=O)O

Key:
Neprilysin (NEP) = Neprilysin (NEP) (Homo sapiens, UniProt P08473); assay: Substrate activity at recombinant human NEP (Tyr52 to Trp750 residues) expressed in HEK293 cells assessed as compound half life by LC-MS analysis; assay type: ADME, cell-based
Mus musculus = assay: Blood pressure lowering activity in anesthetized mouse assessed as change in mean arterial blood pressure at 1.4 uM/kg, iv; assay type: functional
Plasma kallikrein [1] = biological target: T1, Plasma kallikrein (Homo sapiens, UniProt P03952); assay: (§1) Substrate activity at recombinant human C-terminal His6-tagged KLKB1 (Pro19 to Ser262 residues) expressed in mammalian expression system assessed as compound half life by LC-MS analysis; assay type: ADME
[2] = biological target: T2, Plasma kallikrein (KLKB1) (Homo sapiens, UniProt P03952); assay: Substrate activity at KLKB1 in human plasma assessed as compound half life by LC-MS analysis; assay type: ADME, cell-free
Neprilysin = Neprilysin (Homo sapiens, UniProt P08473); assay: Substrate activity at recombinant human NEP (Tyr52 to Trp750 residues) expressed in HEK293 cells assessed as enzyme-mediated degradation onset time at 1 mM by MALDI-TOF MS analysis; assay type: ADME, cell-based; details: hek293, 1000 µM
Apelin receptor [3] = biological target: T3, Apelin receptor (Homo sapiens, UniProt P35414); assay: Activation of recombinant human APJ expressed in rat Chem5 cells co-expressing Galpha15 by Calcium 6-QF dye based fluorescence assay; assay type: functional, cell-based
T3 sequence (P35414 whole entry): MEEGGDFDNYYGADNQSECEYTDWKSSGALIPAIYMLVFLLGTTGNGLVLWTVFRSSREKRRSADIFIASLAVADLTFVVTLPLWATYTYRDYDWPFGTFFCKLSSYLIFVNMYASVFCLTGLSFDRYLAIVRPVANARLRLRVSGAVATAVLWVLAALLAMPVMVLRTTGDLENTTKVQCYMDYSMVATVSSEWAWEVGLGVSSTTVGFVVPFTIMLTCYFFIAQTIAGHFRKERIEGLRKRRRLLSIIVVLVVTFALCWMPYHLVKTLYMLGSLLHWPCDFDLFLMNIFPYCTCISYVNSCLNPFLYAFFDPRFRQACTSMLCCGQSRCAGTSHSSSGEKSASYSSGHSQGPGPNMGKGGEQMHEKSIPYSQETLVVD

Plasma kallikrein [4] = biological target: T1, Plasma kallikrein; assay: Substrate activity at recombinant human C-terminal His6-tagged KLKB1 (Pro19 to Ser262 residues) expressed in mammalian expression system assessed as enzyme-mediated degradation onset time at 1 mM by MALDI-TOF MS analysis; assay type: ADME; details: 1000 µM
[5] = biological target: T2, Plasma kallikrein (KLKB1); assay: as §1; assay type: ADME
Apelin receptor [6] = biological target: T4, Apelin receptor (Rattus norvegicus, UniProt Q9JHG3); assay: Displacement of [125I]-(Glp1,Nle11,[…])apelin-13 from recombinant rat EGFP-fused apelin receptor expressed in CHO cell membrane measured after 3 hrs; assay type: cell membranes
T4 sequence (Q9JHG3 whole entry): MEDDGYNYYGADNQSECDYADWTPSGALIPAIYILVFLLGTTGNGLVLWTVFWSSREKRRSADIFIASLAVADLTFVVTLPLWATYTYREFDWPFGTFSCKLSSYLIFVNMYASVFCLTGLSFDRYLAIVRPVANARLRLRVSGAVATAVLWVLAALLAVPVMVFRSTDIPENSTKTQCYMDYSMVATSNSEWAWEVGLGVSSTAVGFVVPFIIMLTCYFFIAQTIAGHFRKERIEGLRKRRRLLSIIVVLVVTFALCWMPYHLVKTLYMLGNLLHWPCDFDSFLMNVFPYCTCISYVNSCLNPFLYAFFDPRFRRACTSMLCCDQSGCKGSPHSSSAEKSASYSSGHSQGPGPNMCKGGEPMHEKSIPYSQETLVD

Plasma kallikrein [7] = biological target: T1, Plasma kallikrein; assay: Substrate activity at recombinant human C-terminal His6-tagged KLKB1 (Pro19 to Ser262 residues) expressed in mammalian expression system assessed as Vmax measured after 30 to 60 mins by LC-MS analysis; assay type: ADME
Plasma kallikrein [8] = biological target: T1, Plasma kallikrein; assay: Substrate activity at recombinant human C-terminal His6-tagged KLKB1 (Pro19 to Ser262 residues) expressed in mammalian expression system assessed as Kcat measured after 30 to 60 mins by LC-MS analysis; assay type: ADME
Plasma kallikrein [9] = biological target: T1, Plasma kallikrein; assay: Substrate activity at human KLKB1 assessed as ratio of Kcat to Km by spectrofluorimetric method; assay type: ADME
[10] = biological target: T2, Plasma kallikrein (KLKB1); assay: Substrate activity at recombinant human C-terminal His6-tagged KLKB1 (Pro19 to Ser262 residues) expressed in mammalian expression system assessed as Km measured after 30 to 60 mins by LC-MS analysis; assay type: ADME

T2 sequence (P03952 20-390 limits assumed): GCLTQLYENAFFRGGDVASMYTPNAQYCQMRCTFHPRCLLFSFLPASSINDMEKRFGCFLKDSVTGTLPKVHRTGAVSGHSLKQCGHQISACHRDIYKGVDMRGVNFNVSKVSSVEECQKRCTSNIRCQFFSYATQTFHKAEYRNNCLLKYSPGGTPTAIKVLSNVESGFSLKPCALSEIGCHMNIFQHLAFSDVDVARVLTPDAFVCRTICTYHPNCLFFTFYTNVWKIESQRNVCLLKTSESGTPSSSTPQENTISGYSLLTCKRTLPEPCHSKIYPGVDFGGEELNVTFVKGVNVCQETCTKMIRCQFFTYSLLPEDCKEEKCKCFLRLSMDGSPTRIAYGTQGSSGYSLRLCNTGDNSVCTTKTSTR
T2 sequence (P03952 391-638 limits assumed): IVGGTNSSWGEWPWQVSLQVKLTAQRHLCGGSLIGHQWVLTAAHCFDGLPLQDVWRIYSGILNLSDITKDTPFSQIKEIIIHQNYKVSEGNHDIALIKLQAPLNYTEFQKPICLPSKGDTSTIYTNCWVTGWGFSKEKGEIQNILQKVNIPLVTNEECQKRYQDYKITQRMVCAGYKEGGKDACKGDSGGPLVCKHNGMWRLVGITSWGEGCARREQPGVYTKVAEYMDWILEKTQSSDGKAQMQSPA
T1 sequence (P03952 20-390 limits assumed): as the sequence (P03952 20-390 limits assumed) above
T1 sequence (P03952 391-638 limits assumed): as the sequence (P03952 391-638 limits assumed) above
Chain of Neprilysin (P08473 whole entry): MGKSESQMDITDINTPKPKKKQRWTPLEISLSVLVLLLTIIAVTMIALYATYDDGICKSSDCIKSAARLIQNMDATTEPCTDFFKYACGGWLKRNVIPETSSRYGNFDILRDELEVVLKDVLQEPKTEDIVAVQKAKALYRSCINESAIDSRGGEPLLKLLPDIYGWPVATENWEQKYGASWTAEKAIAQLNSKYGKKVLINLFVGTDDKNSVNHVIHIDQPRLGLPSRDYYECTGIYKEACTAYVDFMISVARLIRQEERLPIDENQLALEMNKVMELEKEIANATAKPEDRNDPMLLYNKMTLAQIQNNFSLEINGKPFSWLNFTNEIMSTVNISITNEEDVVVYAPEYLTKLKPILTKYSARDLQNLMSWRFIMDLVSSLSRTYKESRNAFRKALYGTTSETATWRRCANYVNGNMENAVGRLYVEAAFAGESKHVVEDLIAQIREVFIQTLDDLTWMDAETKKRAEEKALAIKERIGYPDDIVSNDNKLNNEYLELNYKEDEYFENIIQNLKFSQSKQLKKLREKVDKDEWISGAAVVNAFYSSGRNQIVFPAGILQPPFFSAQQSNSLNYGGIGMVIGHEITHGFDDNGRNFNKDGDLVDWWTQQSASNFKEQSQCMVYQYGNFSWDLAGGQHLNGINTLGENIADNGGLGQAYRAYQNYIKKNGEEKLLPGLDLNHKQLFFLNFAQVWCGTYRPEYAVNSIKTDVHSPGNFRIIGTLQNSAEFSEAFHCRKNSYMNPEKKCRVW
Chain of Neprilysin (NEP) (P08473 whole entry): as above

| Molecule | half-life (Neprilysin (NEP)) [h] | t1/2 (Plasma kallikrein [1]) [h] | half-life [2] [h] | Time (Neprilysin) [h] | Time (Plasma kallikrein [4]) [h] | half-life [5] [h] | IC50 (Apelin receptor [6]) [nM] | Vmax (Plasma kallikrein [7]) [µmol/min] | Kcat (Plasma kallikrein [8]) [s⁻¹] | Kcat/Km (Plasma kallikrein [9]) [×10⁴ /Ms] | Km [10] [µM] | Activity (Mus musculus) [mmHg] | EC50 (Apelin receptor [3]) [nM] |
| --- | --- | --- | --- | --- | --- | --- | --- | --- | --- | --- | --- | --- | --- |
| CCCC[C@H](NC(=O)[C@@H]1CCCN1C(=O)CNC(=O)[C@H](CCCCN)NC(=O)[C@H](Cc1cnc[nH]1)NC(=O)[C@H](CO)NC(=O)[C@H](CC(C)C)NC(=O)[C@H](CCCNC(=N)N)NC(=O)[C@@H]1CCCN1C(=O)[C@H](CCCNC(=N)N)NC(=O)[C@H](CCC(N)=O)NC(=O)[C@H](CCCNC(=N)N)NC(=O)[C@H](CCCNC(=N)N)NC(=O)[C@H](Cc1ccccc1)NC(=O)[C@H](CCCCN)NC(=O)CCOCCOCCOCCOCCOCCOCCNC(=O)OCC1c2ccccc2-c2ccccc21)C(=O)NC(C)(C)C(=O)N[C@@H](Cc1ccc(Br)cc1)C(=O)O ({Fmoc-PEG6}-KFRRQRPRLSHKGP[Nle][Aib][Phe(4-Br)]-OH) | – | – | 18 | 12 | 1 | > 30 | – | – | – | – | – | -48 | 6.3 |
| CCCC[C@H](NC(=O)[C@@H]1CCCN1C(=O)CNC(=O)[C@H](CCCCN)NC(=O)[C@H](Cc1c[nH]cn1)NC(=O)[C@H](CO)NC(=O)[C@H](CC(C)C)N(C)C(=O)[C@H](CCCNC(=N)N)NC(=O)[C@@H]1CCCN1C(=O)[C@H](CCCNC(=N)N)NC(=O)[C@H](CCC(N)=O)NC(=O)[C@H](CCCNC(=N)N)NC(=O)[C@H](CCCNC(=N)N)NC(=O)[C@H](Cc1ccccc1)NC(=O)[C@@H](N)CCCCN)C(=O)NC(C)(C)C(=O)N[C@@H](Cc1ccc(Br)cc1)C(=O)O (H-KFRRQRPR[NMeL]SHKGP[Nle][Aib][Phe(4-Br)]-OH) | 0.9 | – | 1.2 | – | – | > 30 | – | – | – | – | – | -36 | 4.9 |
| H-SLSSMTRVVGG-OH | – | – | – | – | – | – | – | – | 0.001 | 0.4 | 2.4 | – | – |
| CCCC[C@H](NC(=O)[C@@H]1CCCN1C(=O)CNC(=O)[C@H](CCCCN)NC(=O)[C@H](Cc1cnc[nH]1)NC(=O)[C@H](CO)NC(=O)[C@H](CC(C)C)N(C)C(=O)[C@H](CCCNC(=N)N)NC(=O)[C@@H]1CCCN1C(=O)[C@H](CCCNC(=N)N)NC(=O)[C@H](CCC(N)=O)NC(=O)[C@H](CCCNC(=N)N)NC(=O)[C@H](CCCNC(=N)N)NC(=O)[C@H](Cc1ccccc1)NC(=O)[C@H](CCCCN)NC(=O)CCOCCOCCOCCOCCOCCOCCNC(=O)OCC1c2ccccc2-c2ccccc21)C(=O)NC(C)(C)C(=O)N[C@@H](Cc1ccc(Br)cc1)C(=O)O ({Fmoc-PEG6}-KFRRQRPR[NMeL]SHKGP[Nle][Aib][Phe(4-Br)]-OH) | – | – | 27 | > 36 | 2 | > 30 | – | – | – | – | – | -53 | 2.5 |
| CCCC[C@H](NC(=O)[C@@H]1CCCN1C(=O)CNC(=O)[C@H](CCCCN)NC(=O)[C@H](Cc1cnc[nH]1)NC(=O)[C@H](CO)NC(=O)[C@H](CC(C)C)N(C)C(=O)[C@H](CCCNC(=N)N)NC(=O)[C@@H]1CCCN1C(=O)[C@H](CCCNC(=N)N)NC(=O)[C@H](CCC(N)=O)NC(=O)[C@@H](N)CCCNC(=N)N)C(=O)NC(C)(C)C(=O)N[C@@H](Cc1ccc(Br)cc1)C(=O)O (H-RQRPR[NMeL]SHKGP[Nle][Aib][Phe(4-Br)]-OH) | – | – | – | – | – | – | – | – | – | – | – | -15 | – |

The next lines start with results.

| half-life (Neprilysin (NEP)) [h] | t1/2 (Plasma kallikrein [1]) [h] | half-life [2] [h] | Time (Neprilysin) [h] | Time (Plasma kallikrein [4]) [h] | half-life [5] [h] | IC50 (Apelin receptor [6]) [nM] | Vmax (Plasma kallikrein [7]) [µmol/min] | Kcat (Plasma kallikrein [8]) [s⁻¹] | Kcat/Km (Plasma kallikrein [9]) [×10⁴ /Ms] | Km [10] [µM] | Molecule | Activity (Mus musculus) [mmHg] | EC50 (Apelin receptor [3]) [nM] |
| --- | --- | --- | --- | --- | --- | --- | --- | --- | --- | --- | --- | --- | --- |
| 0.7 | 1 | 0.3 | < 1 | < 0.5 | – | – | – | – | – | – | CCCC[C@H](NC(=O)[C@@H]1CCCN1C(=O)CNC(=O)[C@H](CCCCN)NC(=O)[C@H](Cc1c[nH]cn1)NC(=O)[C@H](CO)NC(=O)[C@H](CC(C)C)NC(=O)[C@H](CCCNC(=N)N)NC(=O)[C@@H]1CCCN1C(=O)[C@H](CCCNC(=N)N)NC(=O)[C@H](CCC(N)=O)NC(=O)[C@H](CCCNC(=N)N)NC(=O)[C@H](CCCNC(=N)N)NC(=O)[C@H](Cc1ccccc1)NC(=O)[C@@H](N)CCCCN)C(=O)NC(C)(C)C(=O)N[C@@H](Cc1ccc(Br)cc1)C(=O)O (H-KFRRQRPRLSHKGP[Nle][Aib][Phe(4-Br)]-OH) | -32 | 4.1 |
| 0.4 | – | 0.02 | < 0.5 | < 0.5 | 0.4 | 0.025 | 2.947 | – | – | – | CSCC[C@H](NC(=O)[C@@H]1CCCN1C(=O)CNC(=O)[C@H](CCCCN)NC(=O)[C@H](Cc1cnc[nH]1)NC(=O)[C@H](CO)NC(=O)[C@H](CC(C)C)NC(=O)[C@H](CCCNC(=N)N)NC(=O)[C@@H]1CCCN1C(=O)[C@H](CCCNC(=N)N)NC(=O)[C@H](CCC(N)=O)NC(=O)[C@H](CCCNC(=N)N)NC(=O)[C@H](CCCNC(=N)N)NC(=O)[C@H](Cc1ccccc1)NC(=O)[C@@H](N)CCCCN)C(=O)N1CCC[C@H]1C(=O)N[C@@H](Cc1ccccc1)C(=O)O | -20 | – |
| 2.1 | – | 20.5 | > 36 | 2 | > 30 | – | – | – | – | – | CCCCCCCCCCCCCCCC(=O)N[C@@H](CCCCN)C(=O)N[C@@H](Cc1ccccc1)C(=O)N[C@@H](CCCNC(=N)N)C(=O)N[C@@H](CCCNC(=N)N)C(=O)N[C@@H](CCC(N)=O)C(=O)N[C@@H](CCCNC(=N)N)C(=O)N1CCC[C@H]1C(=O)N[C@@H](CCCNC(=N)N)C(=O)N(C)[C@@H](CC(C)C)C(=O)N[C@@H](CO)C(=O)N[C@@H](Cc1cnc[nH]1)C(=O)N[C@@H](CCCCN)C(=O)NCC(=O)N1CCC[C@H]1C(=O)N[C@@H](CCCC)C(=O)NC(C)(C)C(=O)N[C@@H](Cc1ccc(Br)cc1)C(=O)O (Palmitoyl-KFRRQRPR[NMeL]SHKGP[Nle][Aib][Phe(4-Br)]-OH) | -12 | – |
| 1 | – | 4.5 | 1 | 1 | 1.5 | – | – | – | – | – | CCCCCCCCCCCCCCCC(=O)N[C@@H](CCCCN)C(=O)N[C@@H](Cc1ccccc1)C(=O)N[C@@H](CCCNC(=N)N)C(=O)N[C@@H](CCCNC(=N)N)C(=O)N[C@@H](CCC(N)=O)C(=O)N[C@@H](CCCNC(=N)N)C(=O)N1CCC[C@H]1C(=O)N[C@@H](CCCNC(=N)N)C(=O)N[C@@H](CC(C)C)C(=O)N[C@@H](CO)C(=O)N[C@@H](Cc1cnc[nH]1)C(=O)N[C@@H](CCCCN)C(=O)NCC(=O)N1CCC[C@H]1C(=O)N[C@@H](CCCC)C(=O)NC(C)(C)C(=O)N[C@@H](Cc1ccc(Br)cc1)C(=O)O (Palmitoyl-KFRRQRPRLSHKGP[Nle][Aib][Phe(4-Br)]-OH) | -41 | – |
| – | – | – | > 36 | – | – | – | – | – | – | – | CCCC[C@H](NC(=O)[C@@H]1CCCN1C(=O)CNC(=O)[C@H](CCCCN)NC(=O)[C@H](Cc1cnc[nH]1)NC(=O)[C@H](CO)NC(=O)[C@H](CC(C)C)NC(=O)[C@H](CCCNC(=N)N)NC(=O)[C@@H]1CCCN1C(=O)[C@H](CCCNC(=N)N)NC(=O)[C@H](CCC(N)=O)NC(=O)[C@@H](N)CCCNC(=N)N)C(=O)NC(C)(C)C(=O)N[C@@H](Cc1ccc(Br)cc1)C(=O)O (H-RQRPRLSHKGP[Nle][Aib][Phe(4-Br)]-OH) | 3 | – |
